Converted amounts (≈) assume the structure as drawn.
How the values were obtained:
[1] = test system: C. albicans CAN14; test: Murine model of oral candidiasis; format: in vivo, C57BL/6 mice; conditions: 600 IU, into the mouth every 12 h for 4 days, immunosuppressed mice
[2] = test system: C. tropicalis (ATCC13803); test: MIC, broth microdilution (CLSI M27-A3), reference isolate; conditions: Candida tropicalis
[3] = test system: Candida albicans clinical isolates; test: MIC, broth microdilution, clinical isolates
[4] = test system: Cryptococcus neoformans clinical isolates; test: MIC, broth microdilution, clinical isolates
[5] = test system: C. parapsilosis (ATCC22019); test: MIC, broth microdilution (CLSI M27-A3), reference isolate; conditions: Lodderomyces parapsilosis
[6] = test system: C. dublinensis (MYA-646); test: as above; conditions: Candida dubliniensis
[7] = test system: C. glabrata (ATCC90030); test: as above; conditions: Nakaseomyces glabratus
[8] = test system: Candida glabrata clinical isolates; test: MIC, broth microdilution, clinical isolates
[9] = test system: Candida parapsilosis isolates; test: MIC, broth microdilution, clinical isolates
[10] = test system: C. neoformans (H99); test: MIC, broth microdilution (CLSI M27-A3), reference isolate; conditions: Cryptococcus neoformans
[11] = test system: C. albicans (CAN14); test: as above; conditions: Candida albicans
[12] = test system: C. krusei (ATCC6258); test: as above; conditions: Pichia kudriavzevii
[13] = test system: C. albicans CAN14; test: Murine model of systemic candidiasis; format: in vivo, C57BL/6 mice; conditions: 10 mg/kg intraperitoneally every 12 h for 5 days
Description: Female mice were used in the oral and systemic candidiasis model.
The murine model of systemic candidiasis was established according to the protocol previously described by [16], with modifications. […] Treatments to mice, performed intraperitoneally, were started 3 h after infection and persisted every 12 h for 5 days. […] All mice were sacrificed by cervical dislocation after 5 days and the kidneys were removed, observed macroscopically for lesions and colonies, weighed, measured and homogenized in PBS. The homogenates were serially diluted and plated on Sabouraud medium plates. Plates were incubated at 30 °C for 48 h and the fungal load was expressed as the ratio of CFU/g of kidney.
A p value ≤ 0.05 was considered significant. Statistical analysis of results of murine tests used Newman–Keuls Multiple and the Student’s t-test using GraphPad Prism, a p-value ≤ 0.05 was considered significant.

[14] = test system: C. albicans (DAY-185); test: MIC, broth microdilution (CLSI M27-A3), reference isolate; conditions: Candida albicans, 48 h

Question: `C[C@@H]1[C@H](O)[C@@H](C)/C=C/C=C/CC/C=C/C=C/C=C/C=C/C(O[C@H]2O[C@H](C)[C@@H](O)[C@H](N)[C@@H]2O)CC2O[C@](O)(CC(O)C(O)CCC(O)CC(O)CC(O)CC(=O)O[C@H]1C)CC(O)C2C(=O)O` (some centres unmarked) [nystatin] was tested. Which “fungal load on the tongue (CFU) versus untreated control” value [1] did it give?
Answer: Its value is “lower”.

Question: Which results are given for `OC(Cn1cncn1)(Cn1cncn1)c1ccc(F)cc1F` [Fluconazole]?
Answer: MIC [2]: > 64 µg/mL; MIC50 ([3]; Candida albicans): 1 µg/mL (≈ 3.27 µM); MIC90 ([3]; Candida albicans): 2 µg/mL (≈ 6.53 µM); MIC ([3]; Candida albicans, C. albicans clinical isolate 1): 1 µg/mL (≈ 3.27 µM); MIC ([3]; Candida albicans, C. albicans clinical isolate 02A): 4 µg/mL (≈ 13.1 µM); MIC ([3]; Candida albicans, C. albicans clinical isolate 02B): 2 µg/mL (≈ 6.53 µM); MIC ([3]; Candida albicans, C. albicans clinical isolate 6): 1 µg/mL (≈ 3.27 µM); MIC ([3]; Candida albicans, C. albicans clinical isolate 7): 1 µg/mL (≈ 3.27 µM); MIC ([3]; Candida albicans, C. albicans clinical isolate 9): 0.5 µg/mL (≈ 1.63 µM); MIC ([3]; Candida albicans, C. albicans clinical isolate 10): 0.5 µg/mL (≈ 1.63 µM); MIC ([3]; Candida albicans, C. albicans clinical isolate 11): 1 µg/mL (≈ 3.27 µM); MIC ([3]; Candida albicans, C. albicans clinical isolate 13): 1 µg/mL (≈ 3.27 µM); MIC90 ([3]; nine C. albicans clinical isolates): 2.0 µg/mL (≈ 6.53 µM); MIC50 [4]: 8 µg/mL (≈ 26.1 µM); MIC90 [4]: 16 µg/mL (≈ 52.2 µM); MIC ([4]; C. neoformans clinical isolate 27JF): 8 µg/mL (≈ 26.1 µM); MIC ([4]; C. neoformans clinical isolate 28JF): 8 µg/mL (≈ 26.1 µM); MIC ([4]; C. neoformans clinical isolate 93): 4 µg/mL (≈ 13.1 µM); MIC ([4]; C. neoformans clinical isolate 94): 8 µg/mL (≈ 26.1 µM); MIC ([4]; C. neoformans clinical isolate 646B): 1 µg/mL (≈ 3.27 µM); MIC ([4]; C. neoformans clinical isolate 975): 2 µg/mL (≈ 6.53 µM); MIC ([4]; C. neoformans clinical isolate 9220): 2 µg/mL (≈ 6.53 µM); MIC ([4]; C. neoformans clinical isolate 9273): 2 µg/mL (≈ 6.53 µM); MIC ([4]; C. neoformans clinical isolate 10131): 8 µg/mL (≈ 26.1 µM); MIC ([4]; C. neoformans clinical isolate 10211): 4 µg/mL (≈ 13.1 µM); MIC ([4]; C. neoformans clinical isolate 10264): 4 µg/mL (≈ 13.1 µM); MIC ([4]; C. neoformans clinical isolate 10335): 8 µg/mL (≈ 26.1 µM); MIC ([4]; C. neoformans clinical isolate 10379): 8 µg/mL (≈ 26.1 µM); MIC ([4]; C. neoformans clinical isolate 41292): 8 µg/mL (≈ 26.1 µM); MIC ([4]; C. neoformans clinical isolate 41295): 32 µg/mL (≈ 104 µM); MIC ([4]; C. neoformans clinical isolate 41296): 16 µg/mL (≈ 52.2 µM); MIC ([4]; C. neoformans clinical isolate 41297): 8 µg/mL (≈ 26.1 µM); MIC ([4]; C. neoformans clinical isolate 41298): 8 µg/mL (≈ 26.1 µM); MIC ([4]; C. neoformans clinical isolate 41299): 4 µg/mL (≈ 13.1 µM); MIC ([4]; C. neoformans clinical isolate 90896): 32 µg/mL (≈ 104 µM); MIC ([4]; C. neoformans clinical isolate 92868): 8 µg/mL (≈ 26.1 µM); MIC ([4]; C. neoformans clinical isolate BF113): 16 µg/mL (≈ 52.2 µM); MIC ([4]; C. neoformans clinical isolate BF114): 64 µg/mL (≈ 209 µM); MIC ([4]; C. neoformans clinical isolate C31): 4 µg/mL (≈ 13.1 µM); MIC ([4]; C. neoformans clinical isolate F10): 4 µg/mL (≈ 13.1 µM); MIC ([4]; C. neoformans clinical isolate RN01): 4 µg/mL (≈ 13.1 µM); MIC ([4]; C. neoformans clinical isolate WP): 8 µg/mL (≈ 26.1 µM); MIC [5]: 8 µg/mL (≈ 26.1 µM); MIC [6]: 1 µg/mL (≈ 3.27 µM); MIC [7]: 4 µg/mL (≈ 13.1 µM); MIC50 ([8]; Nakaseomyces glabratus): 2 µg/mL (≈ 6.53 µM); MIC90 ([8]; Nakaseomyces glabratus): 2 µg/mL (≈ 6.53 µM); MIC ([8]; Nakaseomyces glabratus, C. glabrata clinical isolate 6922): 2 µg/mL (≈ 6.53 µM); MIC ([8]; Nakaseomyces glabratus, C. glabrata clinical isolate 6927): 2 µg/mL (≈ 6.53 µM); MIC ([8]; Nakaseomyces glabratus, C. glabrata clinical isolate 6931): 0.5 µg/mL (≈ 1.63 µM); MIC ([8]; Nakaseomyces glabratus, C. glabrata clinical isolate 6932): 0.5 µg/mL (≈ 1.63 µM); MIC ([8]; Nakaseomyces glabratus, C. glabrata clinical isolate 6943): 8 µg/mL (≈ 26.1 µM); MIC ([8]; Nakaseomyces glabratus, C. glabrata clinical isolate 7110): 1 µg/mL (≈ 3.27 µM); MIC ([8]; Nakaseomyces glabratus, C. glabrata clinical isolate 7221): 0.5 µg/mL (≈ 1.63 µM); MIC ([8]; Nakaseomyces glabratus, C. glabrata clinical isolate 7255): 2 µg/mL (≈ 6.53 µM); MIC ([8]; Nakaseomyces glabratus, C. glabrata clinical isolate 7815): 2 µg/mL (≈ 6.53 µM); MIC ([8]; Nakaseomyces glabratus, C. glabrata clinical isolate 7871): 2 µg/mL (≈ 6.53 µM); susceptibility of isolates according to CLSI M27-S4 ([8]; all C. glabrata clinical isolates): sensitive; MIC90 ([9]; C. parapsilosis isolates): 16 µg/mL (≈ 52.2 µM); MIC50 ([9]; Lodderomyces parapsilosis): 0.25 µg/mL (≈ 0.816 µM); MIC90 ([9]; Lodderomyces parapsilosis): 16 µg/mL (≈ 52.2 µM); MIC ([9]; Lodderomyces parapsilosis, C. parapsilosis isolate 6901): 0.25 µg/mL (≈ 0.816 µM); MIC ([9]; Lodderomyces parapsilosis, C. parapsilosis isolate 6917): 0.25 µg/mL (≈ 0.816 µM); MIC ([9]; Lodderomyces parapsilosis, C. parapsilosis isolate 6933): 0.25 µg/mL (≈ 0.816 µM); MIC ([9]; Lodderomyces parapsilosis, C. parapsilosis isolate 7449): 16 µg/mL (≈ 52.2 µM); MIC ([9]; Lodderomyces parapsilosis, C. parapsilosis isolate 7585): 0.25 µg/mL (≈ 0.816 µM); MIC ([9]; Lodderomyces parapsilosis, C. parapsilosis isolate 7652): 4 µg/mL (≈ 13.1 µM); MIC ([9]; Lodderomyces parapsilosis, C. parapsilosis isolate 7839): 0.5 µg/mL (≈ 1.63 µM); MIC ([9]; Lodderomyces parapsilosis, C. parapsilosis isolate 7970A): 1 µg/mL (≈ 3.27 µM); MIC ([9]; Lodderomyces parapsilosis, C. parapsilosis isolate 8044): 0.25 µg/mL (≈ 0.816 µM); MIC ([9]; Lodderomyces parapsilosis, C. parapsilosis isolate 8662): 16 µg/mL (≈ 52.2 µM); MIC [10]: 2 µg/mL (≈ 6.53 µM); MIC [11]: 0.125 µg/mL (≈ 0.408 µM); MIC [12]: 64 µg/mL (≈ 209 µM); fungal load in the kidneys (CFU/g) versus untreated control [13]: significant reduction; MIC [14]: 0.5 µg/mL (≈ 1.63 µM)
